Drawing on ChEMBL document CHEMBL1833939, “Pyrrolidin-3-yl-N-methylbenzamides as potent histamine 3 receptor antagonists” (Bioorg Med Chem Lett, 2011), this text covers half-life for 3 molecules.

This data set can be described thus: in vitro. The conditions noted are these: human.

SMILES strings stand for the structures.

As usually defined, the half-life is how long it takes for the measured level to halve.

For the molecule `Cc1nc2ccccc2n1-c1ccc(C(=O)N(C)[C@@H]2CCN(C3CCC3)C2)cc1`, the half-life (liver microsomes) is 15 min. As for `Cc1nc2ccccc2n1-c1ccc(C(=O)N(C)[C@@H]2CCN(C3CCCC3)C2)cc1`, the half-life (liver microsomes) is > 30 min. On to `Cc1nc2ccccc2n1-c1ccc(C(=O)N(C)[C@@H]2CCN(C3CCCCC3)C2)cc1`, for which, where the note is “microsomes”, the half-life is > 30 min.
